Experimental data published in US12600732B2, “Bifunctional compounds for degrading BTK via ubiquitin proteosome pathway” (NURIX THERAPEUTICS, INC., priority 2019, dated 2026).
Read-outs that look alike come from different tables or passages of the source. One block for each compound: values may come before it.

What was measured:
Rec-1 cells = test: Cell viability assay (CellTiter-Glo), Rec-1 cells; format: cell-based
Source text: (§1) This example evaluates effects of CTM-mediated degradation on cell viability. […] Mino and Rec-1 are models of Mantle Cell Lymphoma, which is sensitive to IMiDs.

TMD8 C481S cells [1] = test: Cell viability assay (CellTiter-Glo), TMD8 C481S cells; conditions: for EC50: Homo sapiens, TMD8, 72 h; for EMAX (% viable cells): TMD8 C481S cells, treatment time 72 h
TMD8 cells [2] = test: Cell viability assay (CellTiter-Glo), TMD8 cells; conditions: for EC50: Homo sapiens, TMD8, 72 h; for EMAX (% viable cells): TMD8 cells, treatment time 72 h
Mino cells = test: Cell viability assay (CellTiter-Glo), Mino cells; format: cell-based; conditions: Mino cells, treatment time 72 h
Source text: as §1

[3] = tested on: B cell receptor (BCR) signaling; test: B cell activation assay (flow cytometry), mouse B cells; format: cell-based; conditions: treatment 4 h, IgM stimulation 18 h
In short: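 Compound was present throughout BCR stimulation. Live single lymphocytes were gated into CD20+CD3− B cells and CD3+CD20− T cells by flow cytometry. Geometric MFI of CD86 and CD69 was measured per population, with unstimulated samples defining baseline activation.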

[4] = tested on: B cell receptor (BCR) signaling; test: B cell activation assay (flow cytometry), human B cells; format: cell-based; conditions: treatment 4 h, IgM stimulation 18 h
Description: Compound was present throughout the stimulation. Cells were stained with Live/Dead dye (Fisher L34976) and then fluorophore-conjugated antibodies against CD20 (Biolegend 302330), CD3 (BD Pharmingen 557705), CD86 (Biolegend 305416) and CD69 (Biolegend 310906). Stained cells were fixed in PFA and run on an Attune N×T Acoustic Focusing Flow Cytometer (Thermo-Fisher A29004), and data was analyzed using FlowJo (v10.5.3) and GraphPad Prism (v7.00) software. Single live lymphocytes were gated for B cells (CD20+CD3−) and T cells (CD3+CD20−), and the geometric mean fluorescence intensity (MFI) of CD86 and CD69 was calculated for each population. The MFI of the unstimulated sample was used to quantify baseline activation.
This example evaluates whether CTM treatment affects B cell receptor (BCR) signaling. BTK is activated downstream of the B cell receptor and leads to upregulation of activation markers CD86 and CD69 on the surface of B cells.

TMD8 cells [5] = conditions: human, 72 h
BTK C481S = BTK C481S (Homo sapiens, UniProt Q06187, C481S); test: BTK degradation (Total BTK HTRF) in TMD8 cells expressing BTK-C481S; format: cell-based; set-up: endogenous in cells; host or cells: TMD8 BTK-C481S (clone2C3), Cas9 RNP knock-in; conditions: TMD8 BTK-C481S (clone2C3) cells, treatment time 4 h
In short: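 TMD8 cells expressing BTK-C481S were treated for four hours, then lysed for 30 min. Total BTK was measured by HTRF with Eu-cryptate donor and d2 acceptor antibodies as the 665/620 nm ratio, minus donor-only background. DC50 came from four-parameter fits of signal relative to DMSO-treated cells.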

BTK [6] = molecular target: T1, BTK (Mus musculus, UniProt P35991); test: In vivo degradation of BTK in mouse PD experiments with oral dosing; conditions: 24 h, flow cytometry
T1 construct: from tissue; host or cells: mouse blood B cells / splenocytes (CD-1 or BALB/c)
In short: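 CD-1 or BALB/c mice dosed by oral gavage, screens at 90 mg/kg for 6 h, later at lower doses/longer times. Blood or splenocyte BTK measured by intracellular flow cytometry (or HTRF); % degradation from B-cell minus T-cell BTK geometric MFI, relative to vehicle.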

BTK [7] = molecular target: BTK (Homo sapiens, UniProt Q06187); test: Cellular BTK degradation assay (Total BTK HTRF) in TMD8 cells; format: cell-based; set-up: endogenous in cells; host or cells: TMD8
Description: Cellular BTK Degradation Assay
In Vitro Cellular Screening to Determine Potency as Measured by DC50 Values after Four Hour Incubation
BTK levels were determined using Cisbio Total-BTK HTRF (Homologous Time-Resolved Fluorescence) kit (63ADK064PEG) according to the manufacturer's protocol. Briefly, cells were incubated in 1× supplied lysis buffer for 30 minutes. In an opaque white low volume 96-well plate (Cisbio, 66PL96005), cell lysate was combined with two different specific BTK antibodies, one conjugated with Eu^3+-Cryptate FRET donor and one conjugated with d2 FRET acceptor. Assay controls include wells containing cell lysate with only the Eu^3+-Cryptate FRET donor antibody and wells containing both HTRF antibodies and lysis buffer without cells or control lysate provided by Cisbio. HTRF ratio was calculated as (acceptor signal at 665 nm/donor signal at 620 nm)×10^4. Background HTRF levels were determined from the control well containing the donor, but no acceptor, antibody. Background HTRF levels were subtracted from all samples. Readouts were reported as HTRF levels relative to HTRF levels of DMSO-treated cells. Four-parameter non-linear regressions were performed in GraphPad Prism 7.02 to obtain DC50 values.
Cellular BTK degradation was measured as above for four hours in TMD8 cells for two diastereomers of compound 130. DC50 and EC50 values are the concentration at which the response is halfway between the top and bottom of the fitted non-linear regression curve.
The present example evaluates whether potency of BTK CTMs shifts with longer timepoints. DC50 values are typically calculated with a 4-hour timepoint.

TMD8 C481S cells [8] = conditions: human, 72 h
[9] = oral dose 10 mg/kg, splenocytes

Compound: CC#CC(=O)N1CCC[C@H]1c1nc(-c2ccc(C(=O)Nc3ccccn3)cc2)c2c(N)nccn12 [Acalabrutinib, acalabrutinib, reference compound]
EC50 (Rec-1 cells; Homo sapiens, Rec1, treatment time 72 h): 582 nM | EMAX (% viable cells) (Rec-1 cells; treatment time 72 h): 76% | EC50 (TMD8 C481S cells [1]): > 2000 nM | EMAX (% viable cells) (TMD8 C481S cells [1]): 96% | EC50 (TMD8 cells [2]): 12 nM | EMAX (% viable cells) (TMD8 cells [2]): 35% | EC50 (Mino cells; Homo sapiens): 1240 nM | EMAX (% viable cells) (Mino cells): 84% | EC50 ([3]; read-out: CD69 EC50): 1 nM | EC50 ([3]; read-out: CD86 EC50): 3 nM | EC50 ([4]; read-out: CD69 EC50): 2 nM | EC50 ([4]; read-out: CD86 EC50): 3 nM

Compound: CN1CCN([C@@H]2CCCN(c3cnc(C(N)=O)c(Nc4ccc(C5(C)CCN(CCCCc6cccc7c6CN(C6CCC(=O)NC6=O)C7=O)CC5)cc4)n3)C2)C1=O (stereo partly shown) [Compound 21]
EC50 (TMD8 cells [2]): 1.6 nM | EMAX (% viable cells) (TMD8 cells [5]): 19%

Compound: CN1CCN([C@@H]2CCCN(c3cnc(C(N)=O)c(Nc4ccc(C5CCN(CC6CCN(c7ccc(C(=O)N[C@@H]8CCC(=O)NC8=O)nc7)CC6)CC5)cc4)n3)C2)C1=O [Compound 194]
% BTK Remaining (BTK [6]; oral dose 3 mg/kg, blood): 90% | % BTK Remaining (BTK [6]; oral dose 3 mg/kg, splenocytes): 95% | % BTK Remaining (BTK [6]; oral dose 10 mg/kg, blood): 63% | % BTK Remaining (BTK [6]; [9]): 57% | DC50 (BTK [7]; treatment time 4 h): 4.3 nM

Compound: NC(=O)[C@H]1CCN(c2ncnc(N)c2F)C[C@@H]1N1CCC[C@@H](Nc2cc(Cl)cc(C(F)(F)F)c2)C1=O [Vecabrutinib]
EMAX (% viable cells) (TMD8 C481S cells [8]): 51% | EC50 (TMD8 C481S cells [1]): 530 nM | EC50 (TMD8 cells [2]): 256 nM | EMAX (% viable cells) (TMD8 cells [5]): 38%

Second part, led by results:

DC50 (BTK C481S): 9.7 nM | % BTK Remaining (BTK [6]; oral dose 30 mg/kg, blood): 24% | DC50 (BTK [7]; treatment time 24 h): 0.68 nM
Compound: NC(=O)c1ncc(-c2nccs2)nc1Nc1ccc(C2CCN(C[C@@H]3CCN(c4ccc5c(c4)C(=O)N(C4CCC(=O)NC4=O)C5=O)C3)CC2)cc1 (stereo partly shown) [Compound 148]
EC50 (TMD8 C481S cells [1]): 9.18 nM | EMAX (% viable cells) (TMD8 C481S cells [1]): 4% | EC50 (TMD8 cells [2]): 3.27 nM | EMAX (% viable cells) (TMD8 cells [2]): 2%

% BTK Remaining (BTK [6]; oral dose 30 mg/kg, blood): 25% | DC50 (BTK [7]; treatment time 24 h): 4.7 nM
Compound: NC(=O)c1ncc(-c2nccs2)nc1Nc1ccc(N2CCC3(CCN(Cc4ccc5c(c4)C(=O)N(C4CCC(=O)NC4=O)C5=O)CC3)CC2)cc1 (stereo not shown) [Compound 150]

% BTK Remaining (BTK [6]; oral dose 3 mg/kg, blood): 40% | % BTK Remaining (BTK [6]; oral dose 3 mg/kg, splenocytes): 39% | % BTK Remaining (BTK [6]; oral dose 10 mg/kg, blood): 25% | % BTK Remaining (BTK [6]; [9]): 23% | DC50 (BTK [7]; treatment time 4 h): 0.26 nM
Compound: CN1CCN([C@@H]2CCCN(c3cnc(C(N)=O)c(Nc4ccc(C5CCN(CC6CCN(c7ccc(C(=O)N[C@H]8CCC(=O)NC8=O)nc7)CC6)CC5)cc4)n3)C2)C1=O [Compound 195]
